Tested on: HIV-1 Ba-L or HIV-1 IIIB infection of the HOS cell line (expressing hCXCR4/hCCR5/hCD4/pHIV-LTR-luciferase)
Test: HOS HIV-1 Infectivity Assay
Format: cell-based
Details: Human immunodeficiency virus 1, HOS cells, luciferase readout, strain not given, read-out: Activity Level
Procedure: Compounds were profiled against two HIV-1 viruses, the M-tropic (CCR5 utilizing) Ba-L strain and the T-tropic (CXCR4 utilizing) IIIB strain. Ba-L was propagated in either peripheral blood lymphocytes or SupT1/CCR5+/CXCR4+ cells. IIIB was propagated in peripheral blood lymphocytes. Compounds were tested for their ability to block infection of the HOS cell line (expressing hCXCR4/hCCR5/hCD4/pHIV-LTR-luciferase) by either HIV-1 Ba-L or HIV-1 IIIB. Compound cytotoxicity was also examined in the absence of virus addition.
HOS cells (expressing hCXCR4/hCCR5/hCD4/pHIV-LTR-luciferase) were harvested and diluted in Dulbeccos modified Eagles media supplemented with 2% FCS to a concentration of 120,000 cells/ml. The cells were plated into 96-well plates (50 μl per well) and the plates were placed in a tissue culture incubator (370° C.; 5% CO2/95% air) for a period of 24 h.
Subsequently, 50 μl of the desired drug solution (2 times the final concentration) was added to each well and the plates were returned to the tissue culture incubator ([…]; 5% CO2/95% air) for 1 h. Following this incubation, 60 μl of diluted virus (4 times the final concentration) was added to 60 μl of 2× the final desired concentration of the compound and 100 μl this compound/virus mix was added to each well (approximately 2 million RLU per well of virus). The plates were returned to the tissue culture incubator ([…]; 5% CO2/95% air) and were incubated for a further 96 h.
Following this incubation the endpoint for the virally infected cultures was quantified following addition of Steady-Glo Luciferase assay system reagent (Promega, Madison, Wis.). Cell viability or non-infected cultures was measured using a CellTiter-Glo luminescent cell viability assay system (Promega, Madison, Wis.). All luminescent readouts are performed on a Topcount luminescence detector (Packard, Meridien, Conn.).

SMILES	IC50 [nM]
CN(Cc1nc2ccccn2c1C(=O)NCCN1CCCC1)C1CCCc2cccnc21 (stereo not drawn) [Example 35, 2-{[methyl(5,6,7,8-tetrahydro-8-quinolinyl)amino]methyl}-N-[2-(1-pyrrolidinyl)ethyl]imidazo[1,2-a]pyridine-3-carboxamide]	500 to 10000
CN(C)C1CCN(c2ccc(-c3c(CN(C)[C@H]4CCCc5cccnc54)nc4ccccn34)cn2)C1 (stereo partly drawn) [Example 18, (8S)-N-[(3-{6-[3-(Dimethylamino)-1-pyrrolidinyl]-3-pyridinyl}imidazo[1,2-a]pyridin-2-yl)methyl]-N-methyl-5,6,7,8-tetrahydro-8-quinolinamine]	500 to 10000
CN(Cc1nc2ccccn2c1CCCN)[C@H]1CCCc2cccnc21 [Example 2, (8S)-N-{[3-(3-Aminopropyl)imidazo[1,2-a]pyridin-2-yl]methyl}-N-methyl-5,6,7,8-tetrahydro-8-quinolinamine]	< 100
CN(Cc1nc2ccccn2c1-c1ccncc1)[C@H]1CCCc2cccnc21 [Example 1, (8S)-N-Methyl-N-{[3-(4-pyridinyl)imidazo[1,2-a]pyridin-2-yl]methyl}-5,6,7,8-tetrahydro-8-quinolinamine]	< 100
CN(C)c1ccc(-c2c(CN(C)[C@H]3CCCc4cccnc43)nc3ccccn23)cn1 [Example 11, (8S)-N-({3-[6-(Dimethylamino)-3-pyridinyl]imidazo[1,2-a]pyridin-2-yl}methyl)-N-methyl-5,6,7,8-tetrahydro-8-quinolinamine]	< 100
CN1CCN(C(=O)c2c(CN(C)C3CCCc4cccnc43)nc3ccccn23)CC1 (stereo not drawn) [Example 37, N-methyl-N-({3-[(4-methyl-1-piperazinyl)carbonyl]imidazo[1,2-a]pyridin-2-yl}methyl)-5,6,7,8-tetrahydro-8-quinolinamine]	500 to 10000
CN(C)CCNC(=O)c1c(CN(C)C2CCCc3cccnc32)nc2ccccn12 (stereo not drawn) [Example 33, N-[2-(dimethylamino)ethyl]-2-{[methyl(5,6,7,8-tetrahydro-8-quinolinyl)amino]methyl}imidazo[1,2-a]pyridine-3-carboxamide]	500 to 10000
CN(C)C1CCN(Cc2c(CN(C)[C@H]3CCCc4cccnc43)nc3ccccn23)C1 (stereo partly drawn) [Example 13, (8S)-N-[(3-{[3-Dimethylamino-1-pyrrolidinyl]methyl}imidazo[1,2-a]pyridin-2-yl)methyl]-N-methyl-5,6,7,8-tetrahydro-8-quinolinamine]	< 100
CN(C)C1CCN(C(=O)c2c(CN(C)C3CCCc4cccnc43)nc3ccccn23)C1 (stereo not drawn) [Example 36, N-[(3-{[3-(dimethylamino)-1-pyrrolidinyl]carbonyl}imidazo[1,2-a]pyridin-2-yl)methyl]-N-methyl-5,6,7,8-tetrahydro-8-quinolinamine]	100 to 500

From patent US20100227880A1, “CHEMICAL COMPOUNDS” (priority 2006, published 2010)
